Results: US20060135623A1, “Decrease in oxidative stress status through the administration of natural products and pharmaceutical drugs” (priority 2004, published 2006)

How the values were obtained:
C. elegans [1] = test: Survival (life expectancy and lifespan) of C. elegans in liquid culture; assay type: in vivo; details: for life expectancy / lifespan: liquid culture, 25 degrees Celsius; for life expectancy: control 19 days; for lifespan: control 28 days
Procedure: The effect of geranylacetone (GA) and geranylgeranyl acetone (GGA) on the lengthening of lifespan and life expectancy was studied using the model organism, C. elegans, a system that is commonly used to study aging. GA and GGA were tested at three different concentrations of 5 μM 50 μM and 500 μM. The drugs were dissolved in ethanol, and thus ethanol with no drug present was used as the control in these experiments. 100 worms were used to test each concentration of the drug. GA is assumed to be a pure drug at 4.3 M and was dissolved in 100% ethanol. The drug was then diluted in S basal plus cholesterol plus bacteria OP50 such that the final concentration of ethanol on all plates was 1%. GGA was treated as 10% active with an inert carrier. Thus, all treatments were done with a 10-fold increase over the calculated concentration. GGA was suspended in 100% ethanol at 50 degrees Celsius and mixed for about hour after which the supernatant from this mixture was used. The drug was then diluted in S basal plus cholesterol plus bacteria OP50 such that the final concentration of ethanol on all plates was 1%. Wild type N2 C. elegans were obtained from the University of Minnesota Caenorhabditis Genetics Center. All assays were conducted on OP50 (CGCb) using 1× M9 OP50 worm food solution. Survival experiments were carried out in duplicate culture (2 cohorts, 50 worms each) at 25 degrees Celsius. Worms were exposed to the drugs at day 3 of life when set up in liquid culture with OP50 at 10^9 bacteria/ml. Worms were transferred daily for the first six days to remove progeny and to assess mortality. At day 10 and thereafter transfers were done 3 times per week. At each transfer, fresh drug was added to the desired concentration in a manner to achieve a final ethanol concentration of 1%.

[2] = Extrapolation of C. elegans survival data to human life expectancy and lifespan
Excerpt: The extension of life span in the nematode can also be directly measured. The inventor has discovered that feeding GGA to nematodes increased both the mean and maximum lifespan of the nematode by about 50 percent. The increase in lifespan found in the nematode is equivalent to an increase in human life expectancy from 75 years to about 112 years and human lifespan from 120 years to 180 years.

C. elegans [3] = test: Age dependent accumulation of lipofuscin pigment in C. elegans (confocal fluorescence); assay type: in vivo; details: for accumulation of lipofuscin: day 8, control about 65
Procedure: The effect of GGA on the age dependent accumulation of lipofuscin pigment was measured in C. elegans after treatment of worms with various concentrations of the drug. Wild type C. elegans were obtained from the University of Minnesota Caenorhabditis Genetics Center. A 250 mM stock of GGA was dissolved in ethanol and then diluted into 1× M9 OP50 worm food solution. Synchronized eggs were placed on plates containing no drug, 5 μM, 50 μM, or 500 μM GGA and allowed to hatch. On day 8, the worms were washed in 9M buffer and placed on a microscope slide. The amount of lipofuscin pigment was measured using a confocal microscope measuring fluorescence at 488 nm. Fluorescent scans were performed to quantify the amount of lipofuscin pigment. The quantification was normalized to the total area size of the worm in nm^2. The effect of LSG 712 on the age dependent accumulation of lipofuscin pigment was measured in C. elegans after treatment of worms with various concentrations of the drug. Synchronized eggs were placed on plates containing no drug and various concentrations of LSG 712 and allowed to hatch. On day 16, the worms were washed in 9M buffer and placed on a microscope slide. The amount of lipofuscin pigment was measured using a confocal microscope measuring fluorescence at 488 nm.

C. elegans [4] = test: Lifespan of C. elegans under agar culture conditions; assay type: in vivo
Procedure: Additional studies to determine the effect of GGA on lifespan were performed using agar culture conditions. […] 100 μM GGA produces an 11% mean and 13% maximum percent increase in lifespan (Pvalue=0.039). The methods described above for the testing of GGA were employed in the testing of the class IIIa compound, LSG 712. […] 100 μM LSG 712 produces an 12% mean percent extension in lifespan (Pvalue=0.055).

serum thioredoxin = test: Serum thioredoxin levels in human volunteers given GGA; assay type: in vivo; details: three 50 mg capsules per day, pre-treatment about 175 ng/ml
Procedure: To test the effect of GGA in providing oxidative stress protection in humans, 2 human volunteers were given three 50 mg capsules of GGA per day. Serum levels of thioredoxin, a protein important in protection from oxidative stress was measured at various time intervals as shown in FIG. 9.

C. elegans [5] = test: Thermotolerance of C. elegans (35 degrees, SYTOX green fluorescence); assay type: in vivo
Procedure: The thermotolerance experiments were performed by workers at the Buck Institute on Aging in Novato, California under contract with the applicant. The workers at the Buck Institute performed these experiments under the direction and control of the applicant. The method used is that described in Sampayo et al., Aging Cell, 2: 319-326 (2003). In brief, 50 μl of the test compound dilution was added to a 10 ml week old agar plate spotted with 200 μl of concentrated E. coli OP50. The plates were set aside for 2-5 hours to allow the compounds to disperse. Age synchronous worm cultures of wide type (N2 strain) worms were prepared by hypochroride treatment of fertile adults and grown to three days of age at 20° C. The worms were washed off, resuspended in a small volume of S-basal and approximately 1000 worms were spotted onto each compound plate (˜1000 worms per plate) and the plates were incubated at 20° C. for 24 hours. Thermotolerance was measured using a Fluorskan Ascent fluorometer (Thermo Labsystems, MA). The fluorometer temperature was set to 35 °C and the fluorescence was measured in each well every 30 minutes over a 20-24 hour period, with a 20 millisecond integration time for each well. For SYTOX green fluorescence, the excitation wavelength was set to 485 nm and the emission wavelength at 538 nm. Analysis of individual fluorescence curves to determine the time of death was performed using the Fluoroskan Ascent software. Differences in thermotolerance were assessed using the Mantel-Haenszel Logrank test as implemented in Prism (GraphPad Software Inc.). Kaplan-Meier survival curves were generated using Prism survival analysis. […] C. elegans were maintained and handled as described above. The effect of a GGA analogue promoting thermotolerance was tested. The thermotolerance experiments were performed by workers at the Buck Institute on Aging in Novato, California under contract with the applicant. The workers at the Buck Institute performed these experiments under the direction and control of the applicant. […]

C. elegans [6] = test: Cumulative percent loss of C. elegans cultured on agar plates over time; assay type: in vivo
Procedure: Another assay that can be used to measure lifespan extension in C. elegans is to measure the cumulative percent loss of C. elegans cultured on agar plates over time in the presence of GGA (LSG 711). C. elegans were maintained as described above. […] Lifespan extension in the presence of the class IIIa compound where R2 is acetone (LSG 712) was also measured in C. elegans using the cumulative percent loss of C. elegans over time as an assay. The methods described above for the testing of GGA were employed in the testing of LSG 712.

[7] = extrapolated from C. elegans survival at 500 μM (FIG. 3)
[8] = feeding to nematodes, summary statement, concentration not given

SMILES | life expectancy (C. elegans [1]; 5 μM) | lifespan (C. elegans [1]; 5 μM) | life expectancy (C. elegans [1]; 50 μM) | lifespan (C. elegans [1]; 50 μM) | mean percent increase in lifespan (C. elegans [4]; 50 μM) | mean percent increase in lifespan (C. elegans [4]; 100 μM) | maximum percent increase in protection (C. elegans [6]; 50 μM) | mean percent increase in protection (C. elegans [6]; 50 μM) | maximum percent increase in protection (C. elegans [6]; 100 μM) | mean percent increase in protection (C. elegans [6]; 100 μM) | other results
CC(=O)CC/C=C(\C)CCC=C(C)C [GA, geranylacetone] | 21 days | 32 days | 21 days | 30 days |  |  |  |  |  |  | 
CC(=O)CC/C=C(\C)CC/C=C(\C)CC/C=C(\C)CCC=C(C)C [GGA, Geranylgeranyl acetone] | 21 days | 33 days | 23 days | 35 days | 11% | 11% | −7% | −4% | 12% | 7% | equivalent human life expectancy ([2]; equivalent of nematode lifespan increase, from 75 years): about 112 years; equivalent human lifespan ([2]; equivalent of nematode lifespan increase, from 120 years): 180 years; predicted human life expectancy [2, 7]: 85-100 years; predicted human life span [2, 7]: 120-159 years; accumulation of lipofuscin (C. elegans [3]; 5 μM): about 15 autofluorescent intensity/area units; accumulation of lipofuscin (C. elegans [3]; 50 μM): under 5 autofluorescent intensity/area units; accumulation of lipofuscin (C. elegans [3]; 500 μM): under 10 autofluorescent intensity/area units; lipofuscin accumulation by confocal fluorescence microscopy (FIG. 5) (C. elegans [3]; qualitative): reduction of lipofuscin accumulation; maximum percent increase in lifespan (C. elegans [4]; 50 μM): 8%; maximum percent increase in lifespan (C. elegans [4]; 100 μM): 13%; serum thioredoxin (serum thioredoxin; one volunteer, after approximately 32 days): about 275 ng/ml; serum thioredoxin (serum thioredoxin; second volunteer): about 425 ng/ml; maximum increase in lifespan extension (thermotolerance) (C. elegans [5]; 500 μM): 27%; mean increase in lifespan extension (thermotolerance) (C. elegans [5]; 500 μM): 29%; life expectancy (C. elegans [1]; 500 μM): 23 days; lifespan (C. elegans [1]; 500 μM): 37 days; increase of maximum lifespan of the nematode (C. elegans [1]; [8]): about 50%; increase of mean lifespan of the nematode (C. elegans [1]; [8]): about 50%
CC(=O)/C=C/C=C(\C)CC/C=C(\C)CC/C=C(\C)CCC=C(C)C [LSG 712] |  |  |  |  | 12% | 12% | 25% | 21% | 20% | 12% | reduction in the amount of lipofuscin pigment (C. elegans [3]; day 16, compared with non-treated control worms, concentration not given): 50%; mean increase in lifespan extension (thermotolerance) (C. elegans [5]; 100 μM): 19%
